From patent US10098340B2, “Method for preserving cells and cell cultures” (Rich Technologies Holding Company, LLC, priority 2011, dated 2018)

Columns and labels:
Jurkat cells [1] = assay: Live Jurkat cell count (trypan blue) after transfer from storage to standard cultivation conditions; format: cell-based; settings: 24 hrs under standard conditions (37° C., 5% CO2) after storage, Xe+37 doxo and Xe+4 doxo vs control, FIG. 3
Jurkat cells [2] = assay: Caspase 3 activity (apoptosis) in Jurkat cells after storage under xenon pressure; format: cell-based; settings: 4 Atm excessive pressure of gas comprising xenon, 24 hrs of storage, with and without doxorubicin
U-937 cells = assay: JC-1 staining of U-937 cells with flow cytometry (state of mitochondria, apoptosis) after storage under xenon; format: cell-based, human
Protocol: In order to obtain the data presented in these Examples, Leukemic monocyte lymphoma cells U-937 were grown in RPMI-1640 medium supplied with 15% fetal bovine serum and 10 mkg/ml gentamicin in the atmosphere of 5% CO2 at 37° C. Petri dishes containing the cell culture in exponential phase of growth were placed into a holding rack and transferred into containers having an inner volume of approximately 1.5 L which were designed for storage in hyperbaric conditions. The mixture of gases Xe—CO2 (95% and 5% respectively) was used for buildup of pressure of 0.5 to 4.0 Atm above ambient pressure over a period of 5-10 minutes, with particular parameters presented in connection with the Figures presented herein. The temperature was held from 22° C. to 37° C. in this embodiment of the invention Gases were mixed in a separate tank (or in the container/tube) based on calculation of their partial pressure. The container with Petri dishes was kept at this temperature and pressure for 2 hrs. Then the container was transferred to a refrigerator with decreased temperature (from 0.1° C. to +5° C.), while maintaining the pressure. The container was held at under these conditions for approximately 4 weeks. After that, the pressure was released and the container holding the cells was kept for 7 days in a household at a temperature of +4° C. to +10° C. and atmospheric pressure.
Accordingly, these cells respond to a large number of both extracellular and intracellular proapoptotic signals and have been used as model cells for analyzing apoptosis (Pimentel-Muiños F X, Seed B. Regulated commitment of TNF receptor signaling: a molecular switch for death or activation. Immunity. 1999 December; 11 (6):783-93; Karas M, Zaks T Z, Liu J L, LeRoith D. T cell receptor-induced activation and apoptosis in cycling human T cells occur throughout the cell cycle. Mol Biol Cell. 1999 December; 10 (12):4441-50; Valavanis C, Hu Y, Yang Y, Osborne B A, Chouaib S, Greene L, Ashwell J D, Schwartz L M. Model cell lines for the study of apoptosis in vitro. Methods Cell Biol. 2001; 66:417-36).

[Xe] [xenon]
cell growth (number of live cells) after exposure to doxorubicin (Jurkat cells [1]): improved cell growth after exposure to doxorubicin
development of spontaneous and induced (Doxo) apoptosis, caspase 3 activity (Jurkat cells [2]; FIG. 4): prevented development of both spontaneous (series no Doxo in the diagram) and induced (series Doxo in the diagram) apoptosis
development of spontaneous and induced (Doxo) apoptosis, caspase 3 activity (Jurkat cells [2]; FIG. 4, listed as Xenon): prevented development of both spontaneous (no Doxo and non-treated) and induced (Doxo) apoptosis
development of spontaneous and induced (Doxo) apoptosis (U-937 cells; 4 Atm over ambient pressure Xe, with and without doxorubicin, FIG. 5): prevented development of both spontaneous (no Doxo and non-treated) and induced (Doxo) apoptosis
damage of mitochondria compared to control (U-937 cells; JC-1, after 7 days of storage, control = no gas, 37° C.): significantly decreased damage of mitochondria
percentage of doxorubicin-treated cells with undamaged mitochondria (U-937 cells; JC-1, vs cells stored without xenon, after 24 hrs and 7 days of storage, FIG. 5): significantly higher
action on cellular mitochondria (U-937 cells; xenon both in combination with cooling and without cooling): exerted protective action on cellular mitochondria
